Measured values: patent US6586470B1, “Insecticidal composition” (Ecoval INC, priority 1998, dated 2003)

System: Northern corn root worm adults (diabrotica longiscornis)
Assay: Spray test on Northern corn root worm adults
Type: in vivo
Conditions: insects sprayed, inspected after 24 hours, amounts in grams/litre
Method: The insecticidal compositions being tested were formulated in aqueous solution. The amounts of the ingredients are specified in the examples, and unless stated otherwise, are expressed in grams/litre. The compositions were tested on Northern corn root worm adults (diabrotica longiscornis). The insects were treated and tested as indicated above.

Compound | % Control [%] | Alive | Dead | % Control (listed as acetic acid at 50 g/l) | % Control (listed as citric acid at 25 g/l)
CC(=O)O [Sample 1, acetic acid] | 0 | 10 | 0 |  | 
O=C(O)CC(O)(CC(=O)O)C(=O)O [Sample 2, citric acid] | 0 | 10 | 0 |  | 
CC(=O)O [Sample 15, acetic acid] | 0 | 10 | 0 |  | 
CC(=O)O [Sample 18, acetic acid] | 30 | 7 | 3 | partial control | 
O=C(O)CC(O)(CC(=O)O)C(=O)O [Sample 19, citric acid] | 20 | 8 | 2 |  | partial control
